Reference: patent publication US8993616B2, “(aza)indole derivative and use thereof for medical purposes” (Kissei Pharmaceutical Co., Ltd., priority 2007, dated 2015)
pIC50: −log10 of the molar value.

Legend:
[1] = target: Xanthine oxidase (from bovine milk, Sigma) (Bos taurus (Bovine), UniProt P80457); assay: Xanthine oxidase inhibitory activity; type: biochemical; details: xanthine substrate, 10 minutes at room temperature, absorbance at 290 nm
Protocol: (1) Preparation of Test Compounds
Test compounds were dissolved in DMSO (Wako) at 40 mM concentration and then diluted to intended concentrations with phosphate-buffered saline (PBS).
(2) Method for Measurement
Xanthine oxidase (from bovine milk, Sigma) was prepared with phosphate-buffered saline (PBS) at 0.02 units/mL, and then the solution was added to 96 well plates at 50 μL/well. In addition, test compounds diluted with PBS were added at 50 μL/well. Xanthine (Wako) at 200 μM prepared with PBS was added at 100 μL/well, and the reaction was conducted for 10 minutes at room temperature. Absorbance at 290 nm was measured using a microplate reader SpectraMax Plus 384 (Molecular device). The absorbance under a condition without xanthine is 0%, and control without test compounds is 100%. Fifty % inhibitory concentration of a test compound (IC50) was calculated (Table 60). Ex. No in the table indicates Example number.

[2] = test system: BBMV from human kidney cortex (uric acid uptake); assay: Inhibitory activity of uric acid transport with brush-border membrane vesicles (BBMV); type: biochemical; details: 10 μM test compound; uptake of 14C-labeled uric acid into human kidney cortex BBMV, 20 seconds
Protocol: Inhibitory activity of uric acid transport of test compounds was performed on the basis of methods described in a reference (Am. J. Physiol. 266 (Renal Fluid Electrolyte Physiol. 35): F797-F805, 1994) with a partial modification.
(1) Preparation of BBMV from Human Kidney Cortex
BBMV from human kidney cortex were purchased from KAC. Renal cortex was dissected from human kidney and cut into small pieces. Then, the cortex was homogenized in 5 volumes of ice-cold isotonic buffer (300 mM mannitol, 5 mM ethylene glycol-bis-(β-aminoethylether)-N,N,N′,N′-tetraacetic acid (EGTA), 12 mM tris(hydroxymethyl)aminomethane (Tris).HCl, pH 7.4). After adding 1 M magnesium chloride to a final concentration of 12 mM, and then the suspension was mixed and allowed to stand on ice for 15 minutes. […] After centrifugation at 30,000×g for 30 minutes at 4° C., the pellet was resuspended in buffer 2, and then the protein concentration was determined. […]
BBMV were thawed on ice. […] The uptake of uric acid into BBMV was measured by the rapid-filtration technique. […] Furthermore, filters were washed twice with 3 mL of stop solution and dissolved in 10 mL of Filter-Count (PerkinElmer), and the radioactivity was counted in a liquid scintillation counter (PerkinElmer). The radioactivity associated with the filters in the absence of BBMV was used as corrections. […]

Chain of Xanthine oxidase (from bovine milk, Sigma) (P80457 whole entry): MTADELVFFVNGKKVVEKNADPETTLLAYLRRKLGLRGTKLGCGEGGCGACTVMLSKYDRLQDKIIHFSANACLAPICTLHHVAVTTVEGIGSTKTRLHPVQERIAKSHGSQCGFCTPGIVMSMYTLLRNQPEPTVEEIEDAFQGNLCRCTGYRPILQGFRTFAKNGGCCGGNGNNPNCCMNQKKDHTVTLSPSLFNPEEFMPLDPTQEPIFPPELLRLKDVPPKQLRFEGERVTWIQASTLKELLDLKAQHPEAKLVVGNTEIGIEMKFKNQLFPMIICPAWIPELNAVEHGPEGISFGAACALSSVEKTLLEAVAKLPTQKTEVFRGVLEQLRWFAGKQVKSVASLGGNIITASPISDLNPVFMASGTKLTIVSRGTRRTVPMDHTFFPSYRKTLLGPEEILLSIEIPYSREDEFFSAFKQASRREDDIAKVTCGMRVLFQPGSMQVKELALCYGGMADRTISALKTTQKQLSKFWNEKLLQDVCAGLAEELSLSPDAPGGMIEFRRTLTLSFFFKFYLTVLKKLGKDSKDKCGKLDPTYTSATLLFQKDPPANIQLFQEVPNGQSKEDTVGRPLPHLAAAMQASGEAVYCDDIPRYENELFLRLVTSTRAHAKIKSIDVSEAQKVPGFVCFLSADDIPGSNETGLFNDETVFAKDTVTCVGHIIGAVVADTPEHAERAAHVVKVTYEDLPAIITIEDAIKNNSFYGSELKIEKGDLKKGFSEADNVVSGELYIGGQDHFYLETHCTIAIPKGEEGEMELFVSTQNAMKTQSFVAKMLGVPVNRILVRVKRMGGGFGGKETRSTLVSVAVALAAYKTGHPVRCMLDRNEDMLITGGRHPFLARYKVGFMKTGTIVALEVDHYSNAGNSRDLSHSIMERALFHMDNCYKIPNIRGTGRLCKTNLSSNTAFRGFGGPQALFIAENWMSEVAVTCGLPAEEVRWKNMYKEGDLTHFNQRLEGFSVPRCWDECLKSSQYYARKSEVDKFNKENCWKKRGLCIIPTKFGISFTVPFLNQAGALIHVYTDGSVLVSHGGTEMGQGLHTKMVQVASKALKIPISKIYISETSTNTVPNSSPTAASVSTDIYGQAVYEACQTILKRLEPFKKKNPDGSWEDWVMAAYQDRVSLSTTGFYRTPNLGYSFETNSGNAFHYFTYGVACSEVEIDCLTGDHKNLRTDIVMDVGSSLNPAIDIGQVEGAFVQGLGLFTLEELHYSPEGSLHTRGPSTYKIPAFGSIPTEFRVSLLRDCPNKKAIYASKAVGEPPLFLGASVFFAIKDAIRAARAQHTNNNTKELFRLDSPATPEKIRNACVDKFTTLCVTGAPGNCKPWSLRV

Which results are given for `CC(C)c1ccc2c(C#N)cn(-c3ccc(C(=O)O)c(O)c3)c2c1` [Example 237]?
pIC50 [1]: 7.90; inhibition % [2]: 64%
